Data on 4 molecules can be found in US20240293586A1, “RA[…] AND USE THEREOF” (OSAKA UNIVERSITY, priority 2021, published 2024).

What all share (format): in vivo, SCID mice
Series [1] has as its system human prostate cancer cells (LNCaP). Nature of the series: Therapeutic test in human prostate cancer-transplanted mice with Compound 3 (tumor size). The conditions noted are these: 0.5 MBq, FIG. 6. How it is done:
(§1) SCID mice (9 weeks old, male, n=5) were subcutaneously transplanted with human prostate cancer cells (LNCaP, 0.5×10^7 cells/mouse), and then kept for one month. The mice were divided into Compound 3 administration group (n=3) and control group (n=2). For the Compound 3 administration group, Compound 3 (0.43±0.01 MBq) was administered via the tail vein. For the control group, physiological saline was administered. The mice in the Compound 3 administration group (n=3) were anesthetized with isoflurane inhalation at 3 and 24 hours after administration, and the planar images were taken using a SPECT camera (E-cam, Siemens) (matrix size: 256×256, pixel size 1.2×1.2 mm, collimator: LEAP, energy window: 79 keV±20%, image acquisition time 10 min or 20 min).
(§2) The mice in the Compound 3 administration group (0.5 MBq, n=3) and control group (CTL, n=2) of Experimental Example 1 were kept for 3 weeks thereafter, and changes in tumor size were measured. The tumor size was standardized by size at the time of drug administration, and the relative ratio (fold change) to subsequent tumor size was calculated. The tumor size in the control group increased over time, and it increased about seven times after three weeks. […] The mice were dissected and blood biochemical tests were performed.

For series [2] the test system is unchanged. The series is described as follows: Biodistribution test in human prostate cancer-transplanted mice or normal mice. The conditions noted are these: approximately 0.1 MBq, 3 and 24 hours after administration; for accumulation in the tumors (radioactivity distribution % ID, % ID/g): tumor-transplanted mice, FIGS. 8, 10; for accumulation in the kidney (radioactivity distribution % ID, % ID/g): tumor-transplanted or normal mice, FIGS. 7 to 11. The method, then: SCID mice (9 weeks old, male, n=5) were subcutaneously transplanted with human prostate cancer cells (LNCaP, 0.5×10^7 cells/mouse), and then kept for one month. Compound 3, 4, 7 or 8 (approximately 0.1 MBq) was administered to the tumor-transplanted mice or normal mice, and the mice were dissection under isoflurane inhalation anesthesia at 3 and 24 hours after administration to collect various organs including blood, urine and tumors. The radioactivity distribution (% ID) and radioactivity distribution per 1 g of organ weight (% ID/g) were measured for each organ.

For series [3] the test system is unchanged. Nature of the series: Therapeutic test in human prostate cancer-transplanted mice (Experimental Example 4). Conditions: 0.4 MBq or 1 MBq, n=3; kept for 3 weeks; FIGS. 12 to 14. How it is done:
SCID mice (9 weeks old, male, n=5) were subcutaneously transplanted with human prostate cancer cells (LNCaP, 0.5×10^7 cells/mouse), and then kept for one month. The tumor-transplanted mice were divided into Compound 3, 7 or 8 administration group (0.4 MBq or 1 MBq, n=3) and control group (CTL, n=2 or 3), and kept for 3 weeks thereafter, and changes in tumor size and body weight were measured.

A short description of series [4]: Blood biochemical tests and histopathological examination after the therapeutic test. Conditions: 3 weeks after 0.5 MBq. How it is done: as §2
In series [5] the test system is human prostate cancer cells (LNCaP). The series is described as follows: Imaging of human prostate cancer-transplanted mice (planar images, SPECT camera). Conditions: FIG. 5; for accumulation at the tumor-transplanted site: 0.43±0.01 MBq via the tail vein. The method, then: as §1
Where [6] appears, read: planar imaging at 3 and 24 hours after administration.

SMILES strings stand for the structures.

Turning to `O=C(O)CC[C@H](NC(=O)N[C@@H](CCCCNC(=O)[C@@H](Cc1ccc2ccccc2c1)NC(=O)c1ccc(CNC(=O)[C@@H](CCC(=O)O)NC(=O)[C@@H](CCC(=O)O)NC(=O)Cc2ccc([211At])cc2)cc1)C(=O)O)C(=O)O` [Compound 3], in series [1] (after three weeks, n=3, control increased about seven times), the “tumor size, relative ratio (fold change) to size at the time of drug administration” value is given as 0.27 times. Moreover, the tumor size change entry in series [1] (immediately after administration) is “tendency to shrink”. In series [2], the “accumulation in the tumors (radioactivity distribution % ID, % ID/g)” value is given as “significantly accumulated in the tumors” and the “accumulation in the kidney (radioactivity distribution % ID, % ID/g)” value is “accumulate physiologically in the kidney”. Moreover, the “change in tumor size versus control group” value in series [3] is recorded as “tumor growth inhibition was observed”. In series [4], the “histopathological examination of kidneys, salivary glands and thyroid glands” value is “no particular abnormal findings”; the “renal function marker values (blood biochemical tests) versus control group” value is recorded as “no significant differences”. Also, in series [5] (3 hours after administration), the “accumulation at the tumor-transplanted site” value was “accumulated at the tumor-transplanted site”. The “accumulation at the tumor-transplanted site” value in series [5] (24 hours after administration) is reported as “the accumulation continued”. In series [5] (setting [6]), the “accumulation in the kidneys” value is “physiological accumulation in the kidneys” and the “nonspecific accumulation in other organs” value is “no nonspecific accumulation in other organs was observed”.
For the molecule `O=C(O)CC[C@H](NC(=O)N[C@@H](CCCCNC(=O)[C@H](Cc1ccc2ccccc2c1)NC(=O)c1ccc(CNC(=O)[C@H](CCC(=O)O)NC(=O)[C@H](CCC(=O)O)NC(=O)Cc2ccc([211At])cc2)cc1)C(=O)O)C(=O)O` [Compound 4], in series [2], the “accumulation in the kidney (radioactivity distribution % ID, % ID/g)” value is “accumulate physiologically in the kidney”.
As to `O=C(O)CC[C@H](NC(=O)N[C@@H](CCCCNC(=O)[C@@H](Cc1ccc2ccccc2c1)NC(=O)c1ccc(CNC(=O)CCC(=O)NCCCC[C@H](NC(=O)CNC(=O)Cc2ccc([211At])cc2)C(=O)O)cc1)C(=O)O)C(=O)O` [Compound 7], in series [2], the “accumulation in the tumors (radioactivity distribution % ID, % ID/g)” value is recorded as “significantly accumulated in the tumors” and the “accumulation in the kidney (radioactivity distribution % ID, % ID/g)” value is given as “accumulate physiologically in the kidney”. Also, the “change in tumor size versus control group” value in series [3] was “tumor growth inhibition was observed”.
With `O=C(O)CC[C@H](NC(=O)N[C@@H](CCCCNC(=O)[C@@H](Cc1ccc2ccccc2c1)NC(=O)c1ccc(CNC(=O)[C@@H](CCC(=O)O)NC(=O)[C@@H](CCC(=O)O)NC(=O)CCC(=O)NCCCC[C@H](NC(=O)CNC(=O)Cc2ccc([211At])cc2)C(=O)O)cc1)C(=O)O)C(=O)O` [Compound 8], the “accumulation in the kidney (radioactivity distribution % ID, % ID/g)” value in series [2] is listed as “accumulate physiologically in the kidney”. Moreover, the “change in tumor size versus control group” value in series [3] was “tumor growth inhibition was observed”.
